Numbers after ± are expanded uncertainties.
Key:
[1] = Crystal; DSC
[2] = Molar enthalpy of transition or fusion; settings: Crystal; DSC

Triple point temperature [1]: 363.2 ± 1.2 K
Molar enthalpy of transition or fusion [2]: 5.24 ± 0.237 kcal/mol
SMILES: CCOC(=O)c1ccc(N)cc1 [ethyl 4-aminobenzoate]
